# From patent US6642250B2, “1,8-naphthyridin-2(1H)-one derivatives” (Grelan Pharmaceutical Co., Ltd., priority 1999, dated 2003)
# Molecular target: T1, PDE II (Sus scrofa, UniProt F1SUV3)
# T1 sequence (F1SUV3 1-945): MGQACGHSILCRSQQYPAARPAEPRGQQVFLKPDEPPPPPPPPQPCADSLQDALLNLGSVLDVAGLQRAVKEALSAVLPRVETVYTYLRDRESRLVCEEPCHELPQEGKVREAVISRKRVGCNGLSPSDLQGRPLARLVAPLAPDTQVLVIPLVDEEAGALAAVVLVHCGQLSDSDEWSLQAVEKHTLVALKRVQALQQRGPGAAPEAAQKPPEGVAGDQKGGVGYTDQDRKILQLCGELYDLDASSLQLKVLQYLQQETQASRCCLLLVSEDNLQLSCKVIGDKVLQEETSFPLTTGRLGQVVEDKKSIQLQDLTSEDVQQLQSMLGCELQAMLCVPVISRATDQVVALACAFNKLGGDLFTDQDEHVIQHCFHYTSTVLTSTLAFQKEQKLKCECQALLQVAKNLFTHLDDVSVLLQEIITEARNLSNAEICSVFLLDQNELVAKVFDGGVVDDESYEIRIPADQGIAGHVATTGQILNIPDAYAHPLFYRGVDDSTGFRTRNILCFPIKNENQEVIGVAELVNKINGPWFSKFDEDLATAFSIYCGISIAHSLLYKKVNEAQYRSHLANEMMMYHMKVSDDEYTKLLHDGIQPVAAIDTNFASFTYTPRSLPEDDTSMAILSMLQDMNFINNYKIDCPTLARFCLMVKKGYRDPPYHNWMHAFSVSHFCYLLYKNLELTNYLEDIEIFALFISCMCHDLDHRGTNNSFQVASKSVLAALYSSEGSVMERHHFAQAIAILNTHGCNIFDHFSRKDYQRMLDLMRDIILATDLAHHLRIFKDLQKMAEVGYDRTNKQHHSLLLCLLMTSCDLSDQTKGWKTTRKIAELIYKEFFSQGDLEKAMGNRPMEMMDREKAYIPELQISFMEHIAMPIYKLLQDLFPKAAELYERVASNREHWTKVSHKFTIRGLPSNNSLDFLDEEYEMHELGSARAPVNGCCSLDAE
# Assay: PDE inhibition, type II PDE (cAMP substrate, cGMP added)
# Format: biochemical
# Details: PDE II from porcine hearts, cAMP 1 μM; read-out: Inhibition of PDE Isoenzymes (IC50) II
# Experimental: The assays for PDE activity were conducted according to Nicholson et al. method (Br. J. Pharmacol., 97, 889 (1989)).
# Among PDE isozymes, type I, II, III and IV PDEs as used herein were separated from porcine hearts by using an anion exchange chromatography. Type V PDE was also separated from porcine aortae with an anion exchange chromatography and used herein.
# Each PDE isozyme was admixed with ethylene glycol (EG) to adjust the final EG concentration to 30%, then stored at −20° C. and diluted when used. The enzymatic activity for PDE I and V was measured using cGMP as a substrate while that for POE II, III and IV was measured using cAMP.
# [^3H]-cAMP (962 GBq/mmol; Amersham, 25 μl (100,000 cpm)) or [^3H]-cGMP (962 GBq/mmol; Amersham, 25 μl (100,000 cpm)) was added together with each PDE isozyme (25 μl) to an incubation buffer solution with the composition given below to adjust the total volume to 250 μl. Each test compound was dissolved in DMSO to adjust the final concentration to 1% (2.5 μl/tube).
# Incubation buffer solution (pH7.5):
# Tris-HCl (50 mM), magnesium chloride (6 mM), dithiothreitol
# (2.5 mM), 5-nucleotidase (4 μg/ml), bovine serum albumin
# (0.23 mg/ml), and cAMP (1 μM) [or cGMP (1 μM)]
# A mixture of the aforementioned test compound solution and the buffer solution was incubated at 30° C. for 20 minutes. The reaction was quenched by admixing with 1 ml of anion exchange resin slurry (AG1-X8, 200-400 meshes, chloride form; Bio-Rad) to absorb unreacted substrates.
# After the reaction stopped, the mixture was centrifuged at 200×g for 10 minutes, and the resulting supernatant was collected with vials in 250 μl aliquots. To each vial was added 5 ml of ACS-II (scintillator, Amersham). The radioactivity was measured with a liquid scintillator counter for [^3H]-adenosine or [^3H]-guanosine and set as the PDE activity. The measurements were conducted under conditions wherein the enzymatic activity was elevated by adding calmodulin (20 U/ml; Amersham) and calcium chloride (0.1 mM) for PDE-I and cGMP (1 μM) for PDE II, respectively.
# The % inhibition was calculated for test compounds, and IC50 (the concentration of each test compound required for 50% inhibition) was obtained by Probit method. The aforementioned rolipram ((−)-isomer, optical purity: 91% e.e.) known as the PDE IV inhibitor in the prior art was used for the reference compound in this assay.
row,SMILES,IC50
1,"COc1ccc(C2CNC(=O)C2)cc1OC1CCCC1 (single isomer, unassigned) [Rolipram, rolipram, reference compound]",> 100 µM
2,"O=c1c(Cc2cccnc2)cc2cccnc2n1-c1cccc([N+](=O)[O-])c1 [Example No. 2, 1-(3-Nitrophenyl)-3-(pyridin-3-ylmethyl)-1,8-naphthyridin-2(1H)-one]",> 100 µM
3,"O=c1c(CCc2cccnc2)cc2cccnc2n1-c1cccc([N+](=O)[O-])c1 [Example No. 5, 1-(3-Nitrophenyl)-3-[2-(pyridin-3-yl)ethyl]-1,8-naphthyridin-2(1H)-one]",> 100 µM
4,"O=c1c(CCc2ccncc2)cc2cccnc2n1-c1cccc([N+](=O)[O-])c1 [Example No. 6, 1-(3-Nitrophenyl)-3-[2-(pyridin-4-yl)ethyl]-1,8-naphthyridin-2(1H)-one]",> 100 µM
5,"O=c1c(CCCc2cccnc2)cc2cccnc2n1-c1cccc([N+](=O)[O-])c1 [Example No. 7, 1-(3-Nitrophenyl)-3-[3-(pyridin-3-yl)propyl]-1,8-naphthyridin-2(1H)-one]",> 100 µM
6,"O=c1c(CCCc2ccncc2)cc2cccnc2n1-c1cccc([N+](=O)[O-])c1 [Example No. 8, 1-(3-Nitrophenyl)-3-[3-(pyridin-4-yl)propyl]-1,8-naphthyridin-2(1H)-one]",> 100 µM
7,"CSc1cccc(-n2c(=O)c(CCCc3ccncc3)cc3cccnc32)c1 [Example No. 10, 1-(3-Methylthiophenyl)-3-[3-(pyridin-4-yl)propyl]-1,8-naphthyridin-2(1H)-one]",52 µM
8,"O=c1c(CCCCc2cccnc2)cc2cccnc2n1-c1cccc([N+](=O)[O-])c1 [Example No. 14, 1-(3-Nitrophenyl)-3-[4-(pyridin-3-yl)butyl]-1,8-naphthyridin-2(1H)-one]",85 µM
9,"O=c1c(CCCCCc2cccnc2)cc2cccnc2n1-c1cccc([N+](=O)[O-])c1 [Example No. 16, 1-(3-Nitrophenyl)-3-[5-(pyridin-3-yl)pentyl]-1,8-naphthyridin-2(1H)-one]",63 µM
10,"O=c1c(CCCc2ccncc2)cc2cccnc2n1-c1cccnc1 [Example No. 23, 1-(Pyridin-3-yl)-3-[3-(pyridin-4-yl)propyl]-1,8-naphthyridin-2(1H)-one]",> 100 µM
